From patent US12043632B2, “6-heteroaryloxy benzimidazoles and azabenzimidazoles as JAK2 inhibitors” (Ajax Therapeutics, Inc., priority 2020, dated 2024)

Each molecule was assayed against T1, JAK2 (JH1domain-catalytic, Y1007F,Y1008F) kinase (Homo sapiens, UniProt O60674, Y1007F/Y1008F) (assay: JAK2 JH1 Domain Binding Assay). Conditions: qPCR readout.
T1 construct: JAK2 (JH1domain-catalytic, Y1007F,Y1008F) kinase was expressed as N-terminal fusion; made in house; host or cells: transiently transfected HEK293 cells
T1 sequence (O60674 849-1124 Y1007F/Y1008F limits assumed): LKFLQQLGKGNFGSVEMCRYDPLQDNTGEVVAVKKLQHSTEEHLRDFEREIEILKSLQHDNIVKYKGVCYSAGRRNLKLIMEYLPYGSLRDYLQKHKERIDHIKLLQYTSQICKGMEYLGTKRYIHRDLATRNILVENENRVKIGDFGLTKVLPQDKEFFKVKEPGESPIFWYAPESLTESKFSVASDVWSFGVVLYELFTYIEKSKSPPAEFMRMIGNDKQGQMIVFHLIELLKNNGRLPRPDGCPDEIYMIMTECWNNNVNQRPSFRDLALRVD
For `COc1c(Oc2cnn3ccncc23)cnc2nc(Nc3cc(C4CC4)cn([C@H]4C[C@H](C#N)C4)c3=O)n(C)c12` [Example I-96, trans-3-(5-cyclopropyl-3-((7-methoxy-1-methyl-6-(pyrazolo[1,5-a]pyrazin-3-yloxy)-1H-imidazo[4,5-b]pyridin-2-yl)amino)-2-oxopyridin-1(2H)-yl)cyclobutane-1-carbonitrile], the Kd was 10 to 50 nM.
With `Cn1c(Nc2cc(C3CC3)cn(CCCN3CCOCC3)c2=O)nc2ncc(Oc3cnn4ccncc34)c(Cl)c21` [Example I-97, 3-((7-chloro-1-methyl-6-(pyrazolo[1,5-a]pyrazin-3-yloxy)-1H-imidazo[4,5-b]pyridin-2-yl)amino)-5-cyclopropyl-1-(3-morpholinopropyl)pyridin-2(1H)-one] the Kd was less than 10 nM.
For `COc1c(Oc2cnn3ccccc23)cnc2nc(Nc3cc(C4CC4)cn(CCO)c3=O)n(C)c12` [Example I-100, 5-cyclopropyl-1-(2-hydroxyethyl)-3-((7-methoxy-1-methyl-6-(pyrazolo[1,5-a]pyridin-3-yloxy)-1H-imidazo[4,5-b]pyridin-2-yl)amino)pyridin-2(1H)-one], the Kd was 10 to 50 nM.
With `CN1CCN(CCn2cc(C3CC3)cc(Nc3nc4ncc(Oc5cnn6ccccc56)c(Cl)c4n3C)c2=O)CC1` [Example I-102, 3-((7-chloro-1-methyl-6-(pyrazolo[1,5-a]pyridin-3-yloxy)-1H-imidazo[4,5-b]pyridin-2-yl)amino)-5-cyclopropyl-1-(2-(4-methylpiperazin-1-yl)ethyl)pyridin-2(1H)-one] the Kd was less than 10 nM.
`Cn1c(Nc2cc(C(F)(F)F)cn(CCO)c2=O)nc2ncc(Oc3cnn4ccccc34)c(Cl)c21` [Example I-103, 3-((7-chloro-1-methyl-6-(pyrazolo[1,5-a]pyridin-3-yloxy)-1H-imidazo[4,5-b]pyridin-2-yl)amino)-1-(2-hydroxyethyl)-5-(trifluoromethyl)pyridin-2(1H)-one] gave a Kd of less than 10 nM.
In the case of `COc1c(Oc2cnn3ccncc23)cnc2nc(Nc3cc(C4CC4)cn(CC(C)(C)OC)c3=O)n(C)c12` [Example I-106, 5-cyclopropyl-3-((7-methoxy-1-methyl-6-(pyrazolo[1,5-a]pyrazin-3-yloxy)-1H-imidazo[4,5-b]pyridin-2-yl)amino)-1-(2-methoxy-2-methylpropyl)pyridin-2(1H)-one], the Kd is reported as 10 to 50 nM.
In the case of `Cn1c(Nc2cc(C3CC3)cn(-c3cccnc3)c2=O)nc2ncc(Oc3cnn4ccncc34)c(Cl)c21` [Example I-108, 3-((7-chloro-1-methyl-6-(pyrazolo[1,5-a]pyrazin-3-yloxy)-1H-imidazo[4,5-b]pyridin-2-yl)amino)-5-cyclopropyl-2H-[1,3′-bipyridin]-2-one], the Kd is reported as less than 10 nM.
`Cn1c(Nc2cc(C(F)(F)F)cn(-c3cccnc3)c2=O)nc2ncc(Oc3cnn4ccncc34)c(Cl)c21` [Example I-109, 3-((7-chloro-1-methyl-6-(pyrazolo[1,5-a]pyrazin-3-yloxy)-1H-imidazo[4,5-b]pyridin-2-yl)amino)-5-(trifluoromethyl)-2H-[1,3′-bipyridin]-2-one] gave a Kd of less than 10 nM.
`COc1c(Oc2cnn3ccccc23)cnc2nc(Nc3cc(C4CC4)cn([C@H]4C[C@H](O)C4)c3=O)n(C)c12` [Example I-111, trans-5-cyclopropyl-1-(3-hydroxycyclobutyl)-3-((7-methoxy-1-methyl-6-(pyrazolo[1,5-a]pyridin-3-yloxy)-1H-imidazo[4,5-b]pyridin-2-yl)amino)pyridin-2(1H)-one] was tested, and the Kd was less than 10 nM.
`COc1c(Oc2cnn3ccccc23)cnc2nc(Nc3cc(C4CC4)cn([C@H]4C[C@@H](O)C4)c3=O)n(C)c12` [Example I-112, cis-5-cyclopropyl-1-(3-hydroxycyclobutyl)-3-((7-methoxy-1-methyl-6-(pyrazolo[1,5-a]pyridin-3-yloxy)-1H-imidazo[4,5-b]pyridin-2-yl)amino)pyridin-2(1H)-one] gave a Kd of less than 10 nM.
In the case of `Cn1cc(-n2cc(C3CC3)cc(Nc3nc4ncc(Oc5cnn6ccccc56)c(Cl)c4n3C)c2=O)cn1` [Example I-115, 3-((7-chloro-1-methyl-6-(pyrazolo[1,5-a]pyridin-3-yloxy)-1H-imidazo[4,5-b]pyridin-2-yl)amino)-5-cyclopropyl-1-(1-methyl-1H-pyrazol-4-yl)pyridin-2(1H)-one], the Kd is reported as less than 10 nM.
Work on `Cn1nc(C2CC2)cc(Nc2nc3ncc(Oc4cnn5ccccc45)c(Cl)c3n2C)c1=O` [Example I-116, 4-((7-chloro-1-methyl-6-(pyrazolo[1,5-a]pyridin-3-yloxy)-1H-imidazo[4,5-b]pyridin-2-yl)amino)-6-cyclopropyl-2-methylpyridazin-3(2H)-one] yielded a Kd of less than 10 nM.
`Cn1c(Nc2cc(C3CC3)cn(CCCN3CCC(F)(F)C3)c2=O)nc2ncc(Oc3cnn4ccncc34)c(Cl)c21` [Example I-117, 3-((7-chloro-1-methyl-6-(pyrazolo[1,5-a]pyrazin-3-yloxy)-1H-imidazo[4,5-b]pyridin-2-yl)amino)-5-cyclopropyl-1-(3-(3,3-difluoropyrrolidin-1-yl)propyl)pyridin-2(1H)-one] showed a Kd of less than 10 nM.
With `Cn1c(Nc2cc(C(F)(F)F)cn(CCCN3CCC(F)(F)C3)c2=O)nc2ncc(Oc3cnn4ccncc34)c(Cl)c21` [Example I-118, 3-((7-chloro-1-methyl-6-(pyrazolo[1,5-a]pyrazin-3-yloxy)-1H-imidazo[4,5-b]pyridin-2-yl)amino)-1-(3-(3,3-difluoropyrrolidin-1-yl)propyl)-5-(trifluoromethyl)pyridin-2(1H)-one] the Kd was 10 to 50 nM.
With `CN1CCN(Cc2ccc(Nc3nc4ncc(Oc5cnn6ccncc56)c(Cl)c4n3C)cc2C(F)(F)F)CC1` [Example I-120, 7-chloro-1-methyl-N-(4-((4-methylpiperazin-1-yl)methyl)-3-(trifluoromethyl)phenyl)-6-(pyrazolo[1,5-a]pyrazin-3-yloxy)-1H-imidazo[4,5-b]pyridin-2-amine] the Kd was less than 10 nM.
With `COc1c(Oc2cnn3ccccc23)cnc2nc(Nc3cc(C4CC4)cn(CCCN4CCC(F)(F)C4)c3=O)n(C)c12` [Example I-123, 5-cyclopropyl-1-(3-(3,3-difluoropyrrolidin-1-yl)propyl)-3-((7-methoxy-1-methyl-6-(pyrazolo[1,5-a]pyridin-3-yloxy)-1H-imidazo[4,5-b]pyridin-2-yl)amino)pyridin-2(1H)-one] the Kd was 10 to 50 nM.
In the case of `Cn1c(Nc2cc3n(n2)CCCC3(C)C)nc2ncc(Oc3cnn4ccnc(OCCO)c34)c(Cl)c21` [Example I-124, 2-((3-((7-chloro-2-((4,4-dimethyl-4,5,6,7-tetrahydropyrazolo[1,5-a]pyridin-2-yl)amino)-1-methyl-1H-imidazo[4,5-b]pyridin-6-yl)oxy)pyrazolo[1,5-a]pyrazin-4-yl)oxy)ethan-1-ol], the Kd is reported as less than 10 nM.
In the case of `CNc1nccn2ncc(Oc3cnc4nc(Nc5cc6n(n5)CCCC6(C)C)n(C)c4c3Cl)c12` [Example I-125, 7-chloro-N-(4,4-dimethyl-4,5,6,7-tetrahydropyrazolo[1,5-a]pyridin-2-yl)-1-methyl-6-((4-(methylamino)pyrazolo[1,5-a]pyrazin-3-yl)oxy)-1H-imidazo[4,5-b]pyridin-2-amine], the Kd is reported as 10 to 50 nM.
`Cn1c(Nc2cc(C3CC3)nn(CCO)c2=O)nc2ncc(Oc3cnn4ccccc34)c(Cl)c21` [Example I-126, 4-((7-chloro-1-methyl-6-(pyrazolo[1,5-a]pyridin-3-yloxy)-1H-imidazo[4,5-b]pyridin-2-yl)amino)-6-cyclopropyl-2-(2-hydroxyethyl)pyridazin-3(2H)-one] was tested, and the Kd was less than 10 nM.
With `Cn1cc(C(F)(F)F)cc(Nc2nc3ncc(Oc4cnn5ccnc(OCCN6CCOCC6)c45)c(Cl)c3n2C)c1=O` [Example I-127, 3-((7-chloro-1-methyl-6-((4-(2-morpholinoethoxy)pyrazolo[1,5-a]pyrazin-3-yl)oxy)-1H-imidazo[4,5-b]pyridin-2-yl)amino)-1-methyl-5-(trifluoromethyl)pyridin-2(1H)-one] the Kd was 10 to 50 nM.
For `CNc1nccn2ncc(Oc3cnc4nc(Nc5cc(C(F)(F)F)cn(C)c5=O)n(C)c4c3Cl)c12` [Example I-128, 3-((7-chloro-1-methyl-6-((4-(methylamino)pyrazolo[1,5-a]pyrazin-3-yl)oxy)-1H-imidazo[4,5-b]pyridin-2-yl)amino)-1-methyl-5-(trifluoromethyl)pyridin-2(1H)-one], the Kd was less than 10 nM.
`Cn1c(Nc2cc(C3CC3)cn(CCCN3CCCC(F)(F)C3)c2=O)nc2ncc(Oc3cnn4ccncc34)c(Cl)c21` [Example I-129, 3-((7-chloro-1-methyl-6-(pyrazolo[1,5-a]pyrazin-3-yloxy)-1H-imidazo[4,5-b]pyridin-2-yl)amino)-5-cyclopropyl-1-(3-(3,3-difluoropiperidin-1-yl)propyl)pyridin-2(1H)-one] showed a Kd of 10 to 50 nM.
`COc1c(Oc2cnc3cnc(C4CC4)n3c2)cnc2nc(Nc3cc(C(C)(C)C)n([C@H]4C[C@H](O)C4)n3)n(C)c12` [Example I-130, (1r,3r)-3-(5-(tert-butyl)-3-((6-((6-cyclopropylimidazo[1,5-a]pyrimidin-3-yl)oxy)-7-methoxy-1-methyl-1H-imidazo[4,5-b]pyridin-2-yl)amino)-1H-pyrazol-1-yl)cyclobutan-1-ol] showed a Kd of 10 to 50 nM.
Work on `Cn1c(Nc2cc(C3CC3)cn(CC#N)c2=O)nc2ncc(Oc3cnn4ccncc34)c(Cl)c21` [Example I-132, 2-(3-((7-chloro-1-methyl-6-(pyrazolo[1,5-a]pyrazin-3-yloxy)-1H-imidazo[4,5-b]pyridin-2-yl)amino)-5-cyclopropyl-2-oxopyridin-1(2H)-yl)acetonitrile] yielded a Kd of less than 10 nM.
Work on `CNc1nccn2ncc(Oc3cnc4nc(Nc5cc(C6CC6)cn(C)c5=O)n(C)c4c3Cl)c12` [Example I-134, 3-((7-chloro-1-methyl-6-((4-(methylamino)pyrazolo[1,5-a]pyrazin-3-yl)oxy)-1H-imidazo[4,5-b]pyridin-2-yl)amino)-5-cyclopropyl-1-methylpyridin-2(1H)-one] yielded a Kd of less than 10 nM.
Work on `COCCOc1nccn2ncc(Oc3cnc4nc(Nc5cc(C6CC6)cn(C)c5=O)n(C)c4c3Cl)c12` [Example I-135, 3-((7-chloro-6-((4-(2-methoxyethoxy)pyrazolo[1,5-a]pyrazin-3-yl)oxy)-1-methyl-1H-imidazo[4,5-b]pyridin-2-yl)amino)-5-cyclopropyl-1-methylpyridin-2(1H)-one] yielded a Kd of less than 10 nM.
